Literature values in patent publication US20100331419A1, “Combination Therapies for the Treatment of Obesity” (priority 2009, published 2010).

Conditions: literature studies of weight loss medications

| SMILES | weight loss of body weight for drug compared with placebo |
| --- | --- |
| CC(C)CC(N(C)C)C1(c2ccc(Cl)cc2)CCC1 (stereo not drawn) [sibutramine] | about 5% |
| CCN[C@@H](C)Cc1cccc(C(F)(F)F)c1 [dexfenfluramine] | about 5% |
| CCCCCCCCCCC[C@@H](C[C@@H]1OC(=O)[C@H]1CCCCCC)OC(=O)[C@H](CC(C)C)NC=O [orlistat] | about 5% |
